Biological target: HIV-1 protease (Human immunodeficiency virus type 1 group M subtype B, UniProt P04585)
Test: Inhibition constants against HIV-1 protease (method of Pennington et al.)
Format: biochemical
Conditions: HIV-1 protease; read-out: Ki value
Excerpt: We measured the inhibition constants of the compounds listed in Table VII against HIV-1 protease using the above-cited method of Pennington et al.

**Q.** For `CC(C)CN(C[C@@H](O)[C@H](Cc1ccccc1)NC(=O)O[C@H]1CCOC1)S(=O)(=O)N1CCCCC1` [Compound 150, Piperidine-1-sulfonic acid ((2 syn,3S)-2-hydroxy-4-phenyl-3-((S)-tetrahydrofuran-3-yloxycarbonylamino)-butyl)-isobutyl-amide], which Ki is on record?
**A.** Its Ki is 6 nM.

**Q.** `O=C(N[C@@H](Cc1ccccc1)[C@H](O)CN(CC1CCCC1)S(=O)(=O)c1ccc(OC(F)(F)F)cc1)O[C@H]1CCOC1` [Compound 151] was tested. Which Ki did it give?
**A.** Its Ki is 0.8 nM.

**Q.** `CC(C)CN(C[C@@H](O)[C@H](Cc1ccccc1)NC(=O)O[C@H]1CCOC1)S(=O)(=O)c1ccc(OC(F)(F)F)cc1` [Compound 152] was tested. Which Ki did it give?
**A.** The Ki was 2.5 nM.

**Q.** For `COc1ccc(S(=O)(=O)N(CC(C)C)C[C@@H](O)[C@H](Cc2ccccc2)NC(=O)OCc2cccnc2)cc1` [Compound 153], which Ki is on record?
**A.** The Ki was 0.2 nM.

**Q.** With `C=CCOC(=O)N[C@@H](Cc1ccccc1)[C@H](O)CN(CC(C)C)S(=O)(=O)c1ccc(OC)cc1` [Compound 154] as the compound, how does the Ki read?
**A.** Its Ki is 0.5 nM.

**Q.** With `C=C(COC)COC(=O)N[C@@H](Cc1ccccc1)[C@H](O)CN(CC(C)C)S(=O)(=O)c1ccc(NC(C)=O)cc1` [Compound 155, N-4-((2-(syn)-Hydroxy-3-((2-methoxymethyl-allyloxycarbonylamino)-4-(S)-phenyl-butyl)-isobutyl-sulfamoyl)-phenyl)-acetamide] as the compound, how does the Ki read?
**A.** The Ki was 1.7 nM.

**Q.** For `C=CCOC(=O)N[C@@H](Cc1ccccc1)[C@H](O)CN(CC1CCCC1)S(=O)(=O)c1ccc2c(c1)CCN2C(C)=O` [Compound 156], which Ki is on record?
**A.** Its Ki is 2.8 nM.

**Q.** `COc1ccc(S(=O)(=O)N(CC2CCCCC2)C[C@@H](O)[C@H](Cc2ccccc2)NC(=O)O[C@H]2CCOC2)cc1` [Compound 158, N-Cyclohexylmethyl-N-((2 syn,3S)-2-hydroxy-4-phenyl-3-((S)-tetrahydrofuran-3-yloxycarbonylamino)-butyl)-4-methoxy-benzenesulfonamide] was tested. Which Ki did it give?
**A.** The Ki was less than 0.1 nM.

**Q.** With `O=C(N[C@@H](Cc1ccccc1)[C@H](O)CN(CC1CCCCC1)S(=O)(=O)c1ccc(F)cc1)O[C@H]1CCOC1` [Compound 159, N-Cyclohexylmethyl-4-fluoro-N-((2 syn,3S)-2-hydroxy-4-phenyl-3-((S)-tetrahydrofuran-3-yloxycarbonylamino)-butyl)-benzenesulfonamide] as the compound, how does the Ki read?
**A.** Its Ki is 0.2 nM.

**Q.** With `CC(=O)Nc1ccc(S(=O)(=O)N(CC2CCCCC2)C[C@@H](O)[C@H](Cc2ccccc2)NC(=O)O[C@H]2CCOC2)cc1` [Compound 160, N-(4-(Cyclohexylmethyl)-((2 syn,3S)-2-hydroxy-4-phenyl-3-((S)-tetrahydrofuran-3-yloxycarbonylamino)-butyl)-sulfamoyl-phenyl)-acetamide] as the compound, how does the Ki read?
**A.** The Ki was 1 nM.

**Q.** How did the Ki turn out when `CC(C)CN(C[C@@H](O)[C@H](Cc1ccccc1)NC(=O)O[C@H]1CCOC1)S(=O)(=O)N1CCOCC1` [Compound 161] was run?
**A.** The Ki was 20 nM.

**Q.** `C=C(COC)COC(=O)N[C@@H](Cc1ccccc1)[C@H](O)CN(CC1CCCC1)S(=O)(=O)c1ccc(OC)cc1` [Compound 162] was tested. Which Ki did it give?
**A.** The Ki was 0.5 nM.

**Q.** With `COc1ccc(S(=O)(=O)N(CC(C)C)C[C@@H](O)[C@H](Cc2ccccc2)NC(=O)OCc2ccncc2)cc1` [Compound 163, N-((2 syn,3S)-2-Hydroxy-4-phenyl-3-(pyridin-4-yl-methoxycarbonylamino)-butyl)-N-isobutyl-4-methoxy-benzenesulfonamide] as the compound, how does the Ki read?
**A.** The Ki was 0.5 nM.

**Q.** Which Ki does the source give for `CC(=O)Nc1ccc(S(=O)(=O)N(CC(C)C)C[C@@H](O)[C@H](Cc2ccccc2)NC(=O)OCCc2ccccc2)cc1` [Compound 164] here?
**A.** Its Ki is 130 nM.

**Q.** With `Cc1ccc(S(=O)(=O)N(CC(C)C)C[C@@H](O)[C@H](Cc2ccccc2)NC(=O)O[C@H]2CCOC2)cc1` [Compound 165, N-((2 syn,3S)-2-Hydroxy-4-phenyl-3-((syn)-tetrahydrofuran-3-yloxycarbonylamino)-butyl)-N-isobutyl-4-methyl-benzenesulfonamide] as the compound, how does the Ki read?
**A.** The Ki was 0.4 nM.

**Q.** `O=C(N[C@@H](Cc1ccccc1)[C@H](O)CN(CC1CCCC1)S(=O)(=O)c1ccc(O)cc1)OCc1cccnc1` [Compound 166, N-cyclopentylmethyl-4-hydroxy-N-((2 syn,3S)-2-hydroxy-4-phenyl-3-(pyridin-3-yl-methoxycarbonylamino)-butyl)-benzenesulfonamide] was tested. Which Ki did it give?
**A.** Its Ki is less than 0.1 nM.

**Q.** For `CC(C)CN(C[C@@H](O)[C@H](Cc1ccccc1)NC(=O)O[C@H]1CCOC1)S(=O)(=O)c1ccc([N+](=O)[O-])cc1` [Compound 167, N-((2 syn,3S)-2-Hydroxy-4-phenyl-3-((S)-tetrahydrofuran-3-yloxycarbonylamino)-butyl)-N-isobutyl-4-nitro-benzenesulfonamide], which Ki is on record?
**A.** The Ki was 0.45 nM.

**Q.** Which Ki does the source give for `O=C(N[C@@H](Cc1ccccc1)[C@H](O)CN(CC1CCCC1)S(=O)(=O)c1ccc(O)cc1)O[C@H]1CCOC1` [Compound 169, N-Cyclopentylmethyl-4-hydroxy-N-((2 syn,3S)-2-hydroxy-4-phenyl-3-((S)-tetrahydrofuran-3-yloxycarbonylamino)-butyl)-benzenesulfonamide] here?
**A.** The Ki was less than 0.1 nM.

**Q.** Which Ki does the source give for `O=C(N[C@@H](Cc1ccccc1)[C@H](O)CN(CC1CCCC1)S(=O)(=O)c1ccc([N+](=O)[O-])cc1)O[C@H]1CCOC1` [Compound 170, N-Cyclopentylmethyl-N-((2 syn,3S)-2-hydroxy-4-phenyl-3-((S)-tetrahydrofuran-3-yloxycarbonylamino)-butyl)-4-nitro-benzensulfonamide] here?
**A.** The Ki was 0.2 nM.

**Q.** For `Nc1ccc(S(=O)(=O)N(CC2CCCC2)C[C@@H](O)[C@H](Cc2ccccc2)NC(=O)O[C@H]2CCOC2)cc1` [Compound 171, 4-Amino-N-cyclopentylmethyl-N-((2 syn,3S)-2-hydroxy-4-phenyl-3-((S)-tetrahydrofuran-3-yloxycarbonylamino)-butyl)-benzenesulfonamide], which Ki is on record?
**A.** The Ki was 0.2 nM.

**Q.** For `O=C(N[C@@H](Cc1ccccc1)[C@H](O)CN(CC1CCCC1)S(=O)(=O)c1ccc([N+](=O)[O-])cc1[N+](=O)[O-])O[C@H]1CCOC1` [Compound 172], which Ki is on record?
**A.** Its Ki is 21 nM.

**Q.** For `Nc1ccc(S(=O)(=O)N(CC2CCCC2)C[C@@H](O)[C@H](Cc2ccccc2)NC(=O)O[C@H]2CCOC2)c(N)c1` [Compound 173, 2,4-Diamino-N-cyclopentylmethyl-N-((2 syn,3S)-2-hydroxy-4-phenyl-3-((S)-tetrahydrofuran-3-yloxycarbonylamino)-butyl)-benzenesulfonamide], which Ki is on record?
**A.** Its Ki is 0.6 nM.

**Q.** Which Ki does the source give for `CC(C)CN(C[C@@H](O)[C@H](Cc1ccccc1)NC(=O)O[C@H]1CCOC1)S(=O)(=O)c1ccc(OCc2ccccc2)cc1` [Compound 174] here?
**A.** Its Ki is 10 nM.

**Q.** Which Ki does the source give for `CC(C)CN(C[C@@H](O)[C@H](Cc1ccccc1)NC(=O)O[C@H]1CCOC1)S(=O)(=O)c1ccc(O)cc1` [Compound 175] here?
**A.** Its Ki is 0.1 nM.

**Q.** `COc1ccc(COC(=O)N[C@@H](Cc2ccccc2)[C@H](O)CN(CC2CCCC2)S(=O)(=O)c2ccc(OC)cc2)cc1` [Compound 177] was tested. Which Ki did it give?
**A.** The Ki was less than 0.1 nM.

**Q.** `COc1ccc(S(=O)(=O)N(CC2CCCC2)C[C@@H](O)[C@H](Cc2ccccc2)NC(=O)OCc2cccc(OC)c2)cc1` [Compound 178] was tested. Which Ki did it give?
**A.** Its Ki is 0.1 nM.

**Q.** With `COc1ccc(S(=O)(=O)N(CC2CCCC2)C[C@@H](O)[C@H](Cc2ccccc2)NC(=O)OCc2ccccc2OC)cc1` [Compound 179] as the compound, how does the Ki read?
**A.** The Ki was 0.4 nM.

**Q.** For `O=C(N[C@@H](Cc1ccccc1)[C@H](O)CN(CC1CCCC1)S(=O)(=O)c1ccc2c(c1)CCO2)O[C@H]1CCOC1` [Compound 180], which Ki is on record?
**A.** Its Ki is less than 0.1 nM.

**Q.** For `N#Cc1ccc(S(=O)(=O)N(CC2CCCC2)C[C@@H](O)[C@H](Cc2ccccc2)NC(=O)O[C@H]2CCOC2)cc1` [Compound 181], which Ki is on record?
**A.** The Ki was 0.3 nM.

**Q.** With `O=C(N[C@@H](Cc1ccccc1)[C@H](O)CN(CC1CCCC1)S(=O)(=O)c1ccc(F)cc1)O[C@H]1CCOC1` [Compound 182, N-Cyclopentylmethyl-4-fluoro-N-((2 syn,3S)-2-hydroxy-4-phenyl-3-((S)-tetrahydrofuran-3-yloxycarbonylamino)-butyl)-benzenesulfonamide] as the compound, how does the Ki read?
**A.** The Ki was 0.2 nM.

**Q.** With `O=C(N[C@@H](Cc1ccccc1)[C@H](O)CN(CC1CCCC1)S(=O)(=O)c1ccc(Cl)c(Cl)c1)O[C@H]1CCOC1` [Compound 183, 3,4-Dichloro-N-cyclopentylmethyl-N-((2 syn,3S)-2-hydroxy-4-phenyl-3-((S)-tetrahydrofuran-3-yloxycarbonylamino)-butyl)-benzenesulfonamide] as the compound, how does the Ki read?
**A.** Its Ki is 0.1 nM.

**Q.** `COc1ccc(S(=O)(=O)N(CC2CCCC2)C[C@@H](O)[C@H](Cc2ccccc2)NC(=O)O[C@@H]2CCN(C(=O)OC(C)(C)C)C2)cc1` [Compound 184] was tested. Which Ki did it give?
**A.** Its Ki is 5 nM.

**Q.** `COc1ccc(S(=O)(=O)N(CC2CCCC2)CC(O)C(Cc2ccccc2)NC(=O)OC2CCNC2)cc1` (stereo not drawn) [Compound 185] was tested. Which Ki did it give?
**A.** The Ki was 3.5 nM.

**Q.** How did the Ki turn out when `CCC(C)C(NC(=O)OCc1ccccc1)C(=O)NC(Cc1ccccc1)C(O)CN(Cc1ccccc1)S(=O)(=O)Cc1ccccc1` (stereo not drawn) [Compound 186] was run?
**A.** Its Ki is 140 nM.

**Q.** Which Ki does the source give for `CC(=O)Nc1ccc(S(=O)(=O)N(CC(C)C)C[C@@H](O)[C@H](Cc2ccccc2)NC(=O)C(C)(C)NC(=O)OC(C)(C)C)cc1` [Compound 189] here?
**A.** Its Ki is 5500 nM.

**Q.** `CC(=O)Nc1ccc(S(=O)(=O)N(CC(C)C)CC(O)C(Cc2ccccc2)NC(=O)C(CC(N)=O)NC(=O)c2ccc3ccccc3n2)cc1` (stereo not drawn) [Compound 193] was tested. Which Ki did it give?
**A.** The Ki was 400 nM.

**Q.** `CC(C)CN(CC(O)C(Cc1ccccc1)NC(=O)C(CC(N)=O)NC(=O)c1ccc2ccccc2n1)S(=O)(=O)c1ccc(-c2ccon2)s1` (stereo not drawn) [Compound 194] was tested. Which Ki did it give?
**A.** The Ki was 350 nM.

**Q.** `COc1ccc(S(=O)(=O)N(CC2CCCC2)C[C@@H](O)[C@H](CC2CCCCC2)NC(=O)O[C@H]2CCOC2)cc1` [Compound 195, N-((2 syn,3S)-4-Cyclohexyl-2-hydroxy-3-((S)-tetrahydrofuran-3-yloxycarbonylamino)-butyl)-N-cyclopentylmethyl-4-methoxy-benzenesulfonamide] was tested. Which Ki did it give?
**A.** Its Ki is 0.2 nM.

**Q.** For `CC(=O)Nc1ccc(S(=O)(=O)N(CC(C)C)C[C@@H](O)[C@H](Cc2ccccc2)NC(=O)C(=O)C(C)(C)C)cc1` [Compound 1001], which Ki is on record?
**A.** Its Ki is 220 nM.

**Q.** With `CC(=O)Nc1ccc(S(=O)(=O)N(CC(C)C)C[C@@H](O)[C@H](Cc2ccccc2)NC(=O)C[C@H]2CNC(=O)C2)cc1` [Compound 1002] as the compound, how does the Ki read?
**A.** Its Ki is 28 nM.

**Q.** How did the Ki turn out when `CC(C)CN(C[C@@H](O)[C@H](Cc1ccccc1)NC(=O)O[C@H]1CCOC1)S(=O)(=O)c1cccnc1` [Compound 1003] was run?
**A.** Its Ki is 8 nM.

**Q.** Which Ki does the source give for `COc1ccc(S(=O)(=O)N(C)C[C@@H](O)[C@H](Cc2ccccc2)NC(=O)O[C@H]2CCOC2)cc1` [Compound 1005] here?
**A.** Its Ki is 250 nM.

Reference: patent US20080293727A1, “Novel sulfonamide inhibitors of aspartyl protease” (priority 1992, published 2008)
